Data taken from article PMC5936713, “Structural and functional studies of Spr1654: an essential aminotransferase in teichoic acid biosynthesis in Streptococcus pneumoniae” (Open Biology, 2018).
One block for each compound: values may come before it.

Key:
[1] = target: Spr1654 aminotransferase from Streptococcus pneumoniae, full length with C-terminal poly-histidine (Streptococcus pneumoniae) (UniProt Q8DNL6); assay: SEC; Superdex200 Increase 10/300 GL gel filtration, 20 mM Tris-HCl pH 7.5, 200 mM NaCl, 4°C; oligomeric state from the elution profile
Spr1654 [2] = target: T1, Spr1654 (Streptococcus pneumoniae, UniProt A0A0H2URM1); assay: X-ray crystal structure, […] Å; absorption spectroscopy ([…] nm); assay type: binding; settings: covalent; internal aldimine with Lys199; 1 mM PLP preincubated, pH 7.5
T1 construct: gene SP_1837; full-length, C-terminal His6 tag (pET-23b), expressed in E. coli T7 Express; homodimer; residues Tyr4-Thr404 seen in crystals

Spr1654 [3] = target: T1, Spr1654; assay: transamination half-reaction, PLP ([…] nm) to PMP ([…] nm) absorbance; assay type: biochemical; settings: 0.5 mM L-glutamate, Spr1654/PLP 0.9 mg/ml, 50 mM MES pH 6.6, 200 mM NaCl, 25 °C; amino donor
Spr1654 [4] = target: T1, Spr1654; assay: X-ray crystal structure, […] Å; assay type: binding; settings: PMP formed by adding L-glutamate to the PLP complex before crystallization; active site

stoichiometry N [1]: 2
Compound: Spr1654 aminotransferase from Streptococcus pneumoniae, full length with C-terminal poly-histidine (from UniProt Q8DNL6 1-417) (enzyme)

Compound: Cc1ncc(COP(=O)(O)O)c(C=O)c1O [PLP]
X-ray crystal structure, 2.2 Å; absorption spectroscopy (420 nm) (Spr1654 [2]): Clear electron density confirms the formation of a covalent bond between PLP and residue Lys199

Compound: N[C@@H](CCC(=O)O)C(=O)O [E, L-glutamate]
transamination half-reaction, PLP (420 nm) to PMP (330 nm) absorbance (Spr1654 [3]): Spr1654 is able to deaminate L-glutamate in the first half-reaction of transamination with high efficiency

Compound: Cc1ncc(COP(=O)(O)O)c(CN)c1O [PMP]
X-ray crystal structure, 2.4 Å (Spr1654 [4]): In the crystal structure of the Spr1654/PMP complex, the phosphate group serves as the main anchor
